Measured values: patent US10800754B2, “Heterocyclic amide compound” (TAKEDA PHARMACEUTICAL COMPANY LIMITED, priority 2016, dated 2020)

Biological target: T1, human PRS protein (Homo sapiens, UniProt P07814)
T1 construct: to construct His-Avi-hEPRS (998-1512) expression plasmid; His tag (N); Avi tag (N); TEV cleavage site (ENLYFQ/GS, encoded by forward primer hEPRS-TEV-NheF) (N); made in house; host or cells: E. coli BL21(DE3)
T1 sequence (P07814 998-1512): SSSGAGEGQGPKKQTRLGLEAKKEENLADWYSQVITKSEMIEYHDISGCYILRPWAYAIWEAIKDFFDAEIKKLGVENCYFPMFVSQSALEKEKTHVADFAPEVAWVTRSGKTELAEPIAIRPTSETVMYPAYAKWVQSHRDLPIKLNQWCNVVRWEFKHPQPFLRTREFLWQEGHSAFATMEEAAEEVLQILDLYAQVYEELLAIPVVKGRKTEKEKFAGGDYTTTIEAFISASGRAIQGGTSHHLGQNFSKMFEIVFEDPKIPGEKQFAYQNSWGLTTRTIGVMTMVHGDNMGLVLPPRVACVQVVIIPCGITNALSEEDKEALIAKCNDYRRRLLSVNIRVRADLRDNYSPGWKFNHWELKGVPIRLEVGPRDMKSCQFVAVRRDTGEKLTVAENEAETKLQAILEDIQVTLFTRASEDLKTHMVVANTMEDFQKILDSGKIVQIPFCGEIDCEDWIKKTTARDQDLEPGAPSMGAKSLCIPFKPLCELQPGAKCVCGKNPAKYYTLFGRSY
Experiment: PRS inhibitory activity (ATP/[32P]pyrophosphate exchange enzyme reaction)
Assay type: biochemical
Details: 300 nM test compound; recombinant human PRS (EPRS 998-1512); read-out: inhibitory rate (%) of PRS
Protocol: The PRS inhibitory activity of the compounds of the present invention was evaluated by the following method.
An expression plasmid of Catalytic Domain of human EPRS was obtained by PCR using human skeletal muscle cDNA Library (Takara Bio Inc.) as a template and 2 kinds of Primers 5′-[…]-3′ (hEPRS-TEV-NheF) (SEQ ID NO: 1) and 5′-[…]-3′ (hEPRS-St-Not-R) (SEQ ID NO: 2). PCR was performed using PrimeStar GXL DNA Polymerase (Takara Bio Inc.) and included (1) 98° C., 1 min, (2) cycles of 98° C., 10 sec, 65° C., 10 sec, 72° C., 1 min, and (3) reaction at 72° C., 1 min. This was cleaved with Nhe I and Not I (Takara Bio Inc.) and inserted using Ligation High (TOYOBO CO., LTD.) into the Nhe I/Not I site of pET21a (Novagen) with His-Avitag inserted thereinto. This was introduced into ECOS JM109 (NIPPON GENE CO., LTD.) to construct His-Avi-hEPRS (998-1512) expression plasmid.
Recombinant human PRS protein was prepared by transforming the His-Avi-hEPRS (998-1512) expression plasmid prepared above into ECOS Competent E. coli BL21(DE3) (NIPPON GENE CO., LTD.). Escherichia coli obtained by transformation was inoculated into 300 mL of LB medium (1% peptone, 0.5% yeast extract, 0.5% sodium chloride, 0.01% ampicillin) and cultured at 30° C. for 16 hr. The obtained culture medium was transferred into a jar culture tank charged with 6 L of the main fermentation medium (0.3% potassium dihydrogen phosphate, 0.6% disodium hydrogen phosphate, 0.1% ammonium chloride, 0.05% sodium chloride, 0.024% magnesium sulfate, 0.02% NEWPOL LB-625, 1.5% sorbitol, 1.5% casamino acid, 0.5% yeast extract, 0.01% ampicillin) and culturing was started at 37° C., quantity of airflow 5 L/min, stirring rotating speed 400 rpm. At the time point when the turbidity of the culture medium reached about 550 Klett units, the culture temperature was lowered to 16° C., isopropyl-β-D-thiogalactopyranoside (IPTG) was added to the final concentration 0.1 mM, and culturing was performed for another 16 hr to induce expression of human PRS. After completion of culturing, the culture medium was centrifuged at 5,000 rpm for 10 min. The obtained human PRS expressing Escherichia coli was suspended in a buffer containing 50 mM Tris-HCl (pH 8.0), 150 mM NaCl, 1 mM DTT, 5 U/ml Benzonase, 20 mM Imidazole and sonicated using Sonifier (BRANSON). The homogenate was centrifuged (33,000×G, 60 min, Beckman Coulter), the obtained supernatant was subjected to adsorption by passage through Ni-NTA Superflow (QIAGEN) column equilibrated in advance with 50 mM Tris-HCl (pH 8.0), 300 mM NaCl, 1 mM DTT, and elution was performed with a buffer containing 50 mM Tris-HCl (pH 8.0), 300 mM NaCl, 1 mM DTT, 250 mM Imidazole. Furthermore, gel filtration was performed using […] equilibrated in advance with a buffer containing 50 mM Tris-HCl (pH 8.0), 150 mM NaCl, 1 mM DTT, 10% glycerol to give purified human PRS protein. The protein concentration was measured using BCA Protein Assay Kit (PIERCE) and BSA as the standard.
A test compound was dissolved in 5 μL of an assay buffer (50 mM Tris-HCl (pH 7.5), 20 mM KCl, 1 mM DTT, 0.01% Tween 20) and incubated for 60 min with 5 μL of 40 nM human PRS protein dissolved in the assay buffer containing 40 mM MgCl2. An enzyme reaction of the human PRS protein was started by adding 10 μL of a substrate solution containing 300 μM ATP, 160 μM L-Proline, 400 μM pyrophosphate, [^32P]pyrophosphate (PerkinElmer, Waltham, Mass.) prepared to 1 MBq/mL. After incubation at room temperature for 30 min, the reaction was discontinued by adding 50 μL of discontinuation/washing solution (1M HCl, 200 mM sodium pyrophosphate) to the reaction mixture. The reaction solution was transferred to a filter plate (Merck Millipore, Billerica, Mass.) previously added with 200 μL of charcoal solution (0.5% HCl solution containing 10% charcoal (w/v)). […]

Row | SMILES | inhibition at 0.3 µM [%]
1 | Cn1cc(-c2cccc(CC(=O)Nc3cc(N4CC[C@@](C#N)(C5CC5)C4=O)cc(C(F)(F)F)n3)c2)cn1 [Example 61, N-(4-((3S)-3-cyano-3-cyclopropyl-2-oxopyrrolidin-1-yl)-6-(trifluoromethyl)-pyridin-2-yl)-2-(3-(1-methyl-1H-pyrazol-4-yl)phenyl)acetamide] | 84
2 | N#C[C@@]1(C2CC2)CCN(c2ccnc(NC(=O)Cc3cccc(-c4cnn(CC(N)=O)c4)c3)c2)C1=O [Example 69, 2-(3-(1-(2-amino-2-oxoethyl)-1H-pyrazol-4-yl)phenyl)-N-(4-((3S)-3-cyano-3-cyclopropyl-2-oxopyrrolidin-1-yl)pyridin-2-yl)acetamide] | 99
3 | COC(=O)Cn1cc(-c2cccc(CC(=O)Nc3cc(N4CC[C@@](C#N)(C5CC5)C4=O)ccn3)c2)cn1 [Example 73, methyl (4-(3-(2-((4-((3S)-3-cyano-3-cyclopropyl-2-oxopyrrolidin-1-yl)pyridin-2-yl)amino)-2-oxoethyl)phenyl)-1H-pyrazol-1-yl)acetate] | 99
4 | N#C[C@@]1(C2CC2)CCN(c2ccnc(NC(=O)Cc3cccc(-c4cnn(CC5CCCC5)c4)c3)c2)C1=O [Example 75, N-(4-((3S)-3-cyano-3-cyclopropyl-2-oxopyrrolidin-1-yl)pyridin-2-yl)-2-(3-(1-(cyclopentylmethyl)-1H-pyrazol-4-yl)phenyl)acetamide] | 97
5 | N#C[C@@]1(C2CC2)CCN(c2ccnc(NC(=O)Cc3cccc(-c4cnn(CC5CCCO5)c4)c3)c2)C1=O (stereo partly drawn) [Example 76, N-(4-((3S)-3-cyano-3-cyclopropyl-2-oxopyrrolidin-1-yl)pyridin-2-yl)-2-(3-(1-(tetrahydrofuran-2-ylmethyl)-1H-pyrazol-4-yl)phenyl)acetamide] | 98
6 | N#C[C@@]1(C2CC2)CCN(c2ccnc(NC(=O)Cc3cccc(-c4cnn(CCn5ccnc5)c4)c3)c2)C1=O [Example 81, N-(4-((3S)-3-cyano-3-cyclopropyl-2-oxopyrrolidin-1-yl)pyridin-2-yl)-2-(3-(1-(2-(1H-imidazol-1-yl)ethyl)-1H-pyrazol-4-yl)phenyl)acetamide] | 97
7 | N#C[C@@]1(C2CC2)CCN(c2ccnc(NC(=O)Cc3cccc(-c4cnn(CC5CCCCC5)c4)c3)c2)C1=O [Example 82, N-(4-((3S)-3-cyano-3-cyclopropyl-2-oxopyrrolidin-1-yl)pyridin-2-yl)-2-(3-(1-(cyclohexylmethyl)-1H-pyrazol-4-yl)phenyl)acetamide] | 92
8 | COCCOCCn1cc(-c2cccc(CC(=O)Nc3cc(N4CC[C@@](C#N)(C5CC5)C4=O)ccn3)c2)cn1 [Example 86, N-(4-((3S)-3-cyano-3-cyclopropyl-2-oxopyrrolidin-1-yl)pyridin-2-yl)-2-(3-(1-(2-(2-methoxyethoxy)ethyl)-1H-pyrazol-4-yl)phenyl)acetamide] | 96
9 | N#C[C@@]1(C2CC2)CCN(c2ccnc(NC(=O)Cc3cccc(-c4cnn(CCc5ccccc5)c4)c3)c2)C1=O [Example 88, N-(4-((3S)-3-cyano-3-cyclopropyl-2-oxopyrrolidin-1-yl)pyridin-2-yl)-2-(3-(1-(2-phenylethyl)-1H-pyrazol-4-yl)phenyl)acetamide] | 97
10 | CS(=O)(=O)CCn1cc(-c2cccc(CC(=O)Nc3cc(N4CC[C@@](C#N)(C5CC5)C4=O)ccn3)c2)cn1 [Example 89, N-(4-((3S)-3-cyano-3-cyclopropyl-2-oxopyrrolidin-1-yl)pyridin-2-yl)-2-(3-(1-(2-(methylsulfonyl)ethyl)-1H-pyrazol-4-yl)phenyl)acetamide] | 100
11 | N#C[C@@]1(C2CC2)CCN(c2cc(NC(=O)Cc3ccccc3)ncn2)C1=O [Example 127, N-(6-((3S)-3-cyano-3-cyclopropyl-2-oxopyrrolidin-1-yl)pyrimidin-4-yl)-2-phenylacetamide] | 65
12 | N#C[C@@]1(C2CC2)CCN(c2ccnc(NC(=O)Cc3cccc4ccccc34)n2)C1=O [Example 128, N-(4-((3S)-3-cyano-3-cyclopropyl-2-oxopyrrolidin-1-yl)pyrimidin-2-yl)-2-(1-naphthyl)acetamide] | 95

Results, then the molecule that gave them:

Row | inhibition at 0.3 µM [%] | SMILES
13 | 77 | Cc1cc(N2CC(C)C(C#N)(C3CC3)C2=O)cc(NC(=O)Cc2ccccc2)n1 (stereo not drawn) [Example 54, N-(4-(3-cyano-3-cyclopropyl-4-methyl-2-oxopyrrolidin-1-yl)-6-methylpyridin-2-yl)-2-phenylacetamide]
14 | 92 | COc1cc(N2CC[C@@](C#N)(C3CC3)C2=O)cc(NC(=O)Cc2cccc(-c3cnn(C)c3)c2)n1 [Example 62, N-(4-((3S)-3-cyano-3-cyclopropyl-2-oxopyrrolidin-1-yl)-6-methoxypyridin-2-yl)-2-(3-(1-methyl-1H-pyrazol-4-yl)phenyl)acetamide]
15 | 98 | N#C[C@@]1(C2CC2)CCN(c2ccnc(NC(=O)Cc3cccc(-c4cnn(CCn5cccn5)c4)c3)c2)C1=O [Example 80, N-(4-((3S)-3-cyano-3-cyclopropyl-2-oxopyrrolidin-1-yl)pyridin-2-yl)-2-(3-(1-(2-(1H-pyrazol-1-yl)ethyl)-1H-pyrazol-4-yl)phenyl)acetamide]
16 | 93 | N#C[C@@]1(C2CC2)CCN(c2ccnc(NC(=O)Cc3cccc(-c4cnn(CC(C(F)(F)F)C(F)(F)F)c4)c3)c2)C1=O [Example 92, N-(4-((3S)-3-cyano-3-cyclopropyl-2-oxopyrrolidin-1-yl)pyridin-2-yl)-2-(3-(1-(3,3,3-trifluoro-2-(trifluoromethyl)propyl)-1H-pyrazol-4-yl)phenyl)acetamide]
17 | 96 | N#C[C@@]1(C2CC2)CCN(c2ccnc(NC(=O)Cc3cccc(-c4cnn(CC(F)(F)C(F)(F)F)c4)c3)c2)C1=O [Example 96, N-(4-((3S)-3-cyano-3-cyclopropyl-2-oxopyrrolidin-1-yl)pyridin-2-yl)-2-(3-(1-(2,2,3,3,3-pentafluoropropyl)-1H-pyrazol-4-yl)phenyl)acetamide]
18 | 57 | N#C[C@@]1(C2CC2)CCN(c2cc(NC(=O)Cc3cccc(Cl)c3)ncn2)C1=O [Example 126, 2-(3-chlorophenyl)-N-(6-((3S)-3-cyano-3-cyclopropyl-2-oxopyrrolidin-1-yl)pyrimidin-4-yl)acetamide]
